Key:
Format in all cases: functional
Portulaca oleracea [1] = experiment: Pre-emergence herbicidal activity against Portulaca oleracea in tomato field assessed as number of weeds at 2.28 kg/ha applied through drip lines/backpack-spray on week 3 to 4 before transplanting measured 12 weeks after treatment (reference value: 9 plants/m2)
Poaceae [2] = experiment: Pre-emergence herbicidal activity against Poaceae (grass family) in tomato field assessed as number of weeds at 2.28 kg/ha applied through drip lines/backpack-spray on week 3 to 4 before transplanting measured 7 weeks after treatment (reference value: 6 plants/m2)
Trianthema [3] = experiment: Pre-emergence herbicidal activity against Trianthema spp. in tomato field assessed as total number of fruits at 2.28 kg/ha applied through drip lines/backpack-spray on week 3 to 4 before transplanting (reference value: 49.5 x 10 '3 ha); conditions: pooled result: one value given for 8 cell lines, strains, targets or settings
Cyperus [4] = experiment: Pre-emergence herbicidal activity against Cyperus in tomato field assessed as number of weeds at 2.28 kg/ha applied through drip lines/backpack-spray on week 3 to 4 before transplanting measured 12 weeks after treatment (reference value: 5 plants/m2)
Eleusine indica [5] = experiment: Pre-emergence herbicidal activity against Eleusine indica in tomato field assessed as number of weeds at 2.28 kg/ha applied through drip lines/backpack-spray on week 3 to 4 before transplanting measured 7 weeks after treatment (reference value: 9 plants/m2)
Eleusine indica [6] = experiment: Pre-emergence herbicidal activity against Eleusine indica in tomato field assessed as total fruit weight at 2.28 kg/ha applied through drip lines/backpack-spray on week 3 to 4 before transplanting (reference value: 13.7 t/ha); conditions: pooled result: one value given for 8 cell lines, strains, targets or settings
Amaranthus dubius [7] = experiment: Pre-emergence herbicidal activity against Amaranthus dubius in tomato field assessed as number of weeds at 2.28 kg/ha applied through drip lines/backpack-spray on week 3 to 4 before transplanting measured 12 weeks after treatment (reference value: 9 plants/m2)
Echinochloa colona [8] = experiment: Pre-emergence herbicidal activity against Echinochloa colona in tomato field assessed as number of weeds at 2.28 kg/ha applied through drip lines/backpack-spray on week 3 to 4 before transplanting measured 12 weeks after treatment (reference value: 9 plants/m2)
Digitaria [9] = experiment: Pre-emergence herbicidal activity against Digitaria spp. in tomato field assessed as number of weeds at 2.28 kg/ha applied through drip lines/backpack-spray on week 3 to 4 before transplanting measured 7 weeks after treatment (reference value: 9 plants/m2)
Amaranthus dubius [10] = experiment: Pre-emergence herbicidal activity against Amaranthus dubius in tomato field assessed as number of weeds at 2.28 kg/ha applied through drip lines/backpack-spray on week 3 to 4 before transplanting measured 7 weeks after treatment (reference value: 9 plants/m2)
Trianthema [11] = experiment: Pre-emergence herbicidal activity against Trianthema spp. in tomato field assessed as number of weeds at 2.28 kg/ha applied through drip lines/backpack-spray on week 3 to 4 before transplanting measured 12 weeks after treatment (reference value: 9 plants/m2)
Boerhavia erecta [12] = experiment: Pre-emergence herbicidal activity against Boerhavia erecta in tomato field assessed as number of weeds at 2.28 kg/ha applied through drip lines/backpack-spray on week 3 to 4 before transplanting measured 7 weeks after treatment (reference value: 9 plants/m2)
Echinochloa colona [13] = experiment: Pre-emergence herbicidal activity against Echinochloa colona in tomato field assessed as number of weeds at 2.28 kg/ha applied through drip lines/backpack-spray on week 3 to 4 before transplanting measured 7 weeks after treatment (reference value: 9 plants/m2)
Eleusine indica [14] = experiment: Pre-emergence herbicidal activity against Eleusine indica in tomato field assessed as number of extra-large fruits at 2.28 kg/ha applied through drip lines/backpack-spray on week 3 to 4 before transplanting (reference value: 21.3 x 10 '3 ha); conditions: pooled result: one value given for 8 cell lines, strains, targets or settings
Digitaria [15] = experiment: Pre-emergence herbicidal activity against Digitaria spp. in tomato field assessed as number of weeds at 2.28 kg/ha applied through drip lines/backpack-spray on week 3 to 4 before transplanting measured 12 weeks after treatment (reference value: 9 plants/m2)
Corynandra viscosa [16] = experiment: Pre-emergence herbicidal activity against Cleome viscosa in tomato field assessed as number of weeds at 2.28 kg/ha applied through drip lines/backpack-spray on week 3 to 4 before transplanting measured 7 weeks after treatment (reference value: 9 plants/m2)
Boerhavia erecta [17] = experiment: Pre-emergence herbicidal activity against Boerhavia erecta in tomato field assessed as number of weeds at 2.28 kg/ha applied through drip lines/backpack-spray on week 3 to 4 before transplanting measured 12 weeks after treatment (reference value: 9 plants/m2)
Eleusine indica [18] = experiment: Pre-emergence herbicidal activity against Eleusine indica in tomato field assessed as number of weeds at 2.28 kg/ha applied through drip lines/backpack-spray on week 3 to 4 before transplanting measured 12 weeks after treatment (reference value: 9 plants/m2)
Portulaca oleracea [19] = experiment: Pre-emergence herbicidal activity against Portulaca oleracea in tomato field assessed as number of weeds at 2.28 kg/ha applied through drip lines/backpack-spray on week 3 to 4 before transplanting measured 7 weeks after treatment (reference value: 9 plants/m2)
Cyperus [20] = experiment: Pre-emergence herbicidal activity against Cyperus in tomato field assessed as number of weeds at 2.28 kg/ha applied through drip lines/backpack-spray on week 3 to 4 before transplanting measured 7 weeks after treatment (reference value: 3 plants/m2)
Poaceae [21] = experiment: Pre-emergence herbicidal activity against Poaceae (grass family) in tomato field assessed as number of weeds at 2.28 kg/ha applied through drip lines/backpack-spray on week 3 to 4 before transplanting measured 12 weeks after treatment (reference value: 8 plants/m2)
Amaranthus dubius [22] = experiment: Pre-emergence herbicidal activity against Amaranthus dubius in tomato field assessed as extra-large fruit weight at 2.28 kg/ha applied through drip lines/backpack-spray on week 3 to 4 before transplanting (reference value: 7.3 t/ha); conditions: pooled result: one value given for 8 cell lines, strains, targets or settings
Trianthema [23] = experiment: Pre-emergence herbicidal activity against Trianthema spp. in tomato field assessed as number of weeds at 2.28 kg/ha applied through drip lines/backpack-spray on week 3 to 4 before transplanting measured 7 weeks after treatment (reference value: 9 plants/m2)
Corynandra viscosa [24] = experiment: Pre-emergence herbicidal activity against Cleome viscosa in tomato field assessed as number of weeds at 2.28 kg/ha applied through drip lines/backpack-spray on week 3 to 4 before transplanting measured 12 weeks after treatment (reference value: 9 plants/m2)

## CCN(CC)C(=O)C(C)Oc1cccc2ccccc12 (centres undefined) [NAPROPAMIDE]
Portulaca oleracea [1]
  Activity: 7 /m2
Poaceae [2]
  Activity: 1 /m2
Trianthema [3]
  Activity: 58.3 10^3 fruits/ha
Cyperus [4]
  Activity: 9 /m2
Eleusine indica [5]
  Activity: 4 /m2
Eleusine indica [6]
  Activity: 16.4 tons/ha
Amaranthus dubius [7]
  Activity: 7 /m2
Echinochloa colona [8]
  Activity: 7 /m2
Digitaria [9]
  Activity: 4 /m2
Amaranthus dubius [10]
  Activity: 4 /m2
Trianthema [11]
  Activity: 7 /m2
Boerhavia erecta [12]
  Activity: 4 /m2
Echinochloa colona [13]
  Activity: 4 /m2
Eleusine indica [14]
  fruit count: 26.3 10^3 fruits/ha
Digitaria [15]
  Activity: 7 /m2
Corynandra viscosa [16]
  Activity: 4 /m2
Boerhavia erecta [17]
  Activity: 7 /m2
Eleusine indica [18]
  Activity: 7 /m2
Portulaca oleracea [19]
  Activity: 4 /m2
Cyperus [20]
  Activity: 6 /m2
Poaceae [21]
  Activity: 6 /m2
Amaranthus dubius [22]
  Activity: 9.1 tons/ha
Trianthema [23]
  Activity: 4 /m2
Corynandra viscosa [24]
  Activity: 7 /m2
